Measurements from patent US9040715B2 (priority 2008, dated 2015).
≈ marks a conversion by molar mass, not a printed value.

Legend:
Candida albicans (CAF-2) = assay: Anti-fungal/anti-yeast activity: MIC50 (broth microdilution) and MFC; type: cell-based
Method: (§1) Fluconazole, an ergosterol inhibitor, and the beta-1,3-glucan inhibitor micafungin served as controls (See Tables 1-8).
(§2) The minimum inhibitory concentrations resulting in 50% growth inhibition (MIC50) of […] Candida species (C. albicans, C. tropicalis and C. glabrata, C. lusitaniae, C. parapsilosis, and C. apicola) as well as Aspergillus fumigatus to a set of novel synthetic compounds was determined in accordance with the guidelines in CLSI document M27-A2 (Clinical and Laboratory Standards Institute; Wayne, Pa.). The total volume of cells and drug was 100 μL per microtiter well, and each drug was diluted in RPMI to achieve final concentrations of 0.2-100 μg/ml. Uninoculated cultures were used as a reference standard. Stock inoculum suspensions were prepared from 24 hour cultures on YPD (yeast extract/peptone/dextrose) media at 30° C. For MIC determinations, an inoculum of 1.0×10^3 cells of Candidia and 2.0×10^3 cells of Aspergillus per well were used, and cells in diluted drugs were prepared in RPMI-1640 medium. MICs were determined both visually and spectrophotometrically at 24 hours and 48 h at 550 nm using a micro plate reader. The MIC50 endpoint was measured as the lowest drug concentration resulting in a reduction of growth of 50% or more compared with growth of the control.
(§3) The minimum fungicidal concentrations (MFCs) were determined for each drug-isolate-medium combination as follows. After 48 hours of incubation, 100 μL of each drug-isolate-medium combination (2 plates) was subcultured onto YPD plates (100 μL of solution was spread over the YPD plate). […] The plates were then incubated at 30° C. for 48 hours.
(§4) The in vitro fungicidal activities (MFCs) were determined for each drug-isolate-medium combination as follows. After 48 hours of incubation, 10 μL each drug-isolate-medium combination was spotted onto YPD plates (10 μL of each well is spotted sequentially with positive and negative control wells). […] The plates were then incubated at 30° C. for 48 hours.

Candida apicola = assay: as above; type: cell-based
Method: as §1, §2, §3, §4

Candida glabrata = assay: as above; type: cell-based
Method: as §1, §2, §3, §4

Candida lusitaniae = assay: as above; type: cell-based
Method: as §1, §2, §3, §4

Candida tropicalis = assay: as above; type: cell-based
Method: as §1, §2, §3, §4

Candidia parapsilosis = assay: as above; type: cell-based
Method: as §1, §2, §3, §4

[1] = tested on: Saccharomyces cerevisiae (YPH501); assay: as above; type: cell-based
Huh7 cells = assay: Neutral red uptake assay (cytotoxicity); type: cell-based, human
Description: The neutral red uptake assay is a cytotoxicity test that is based on the ability of viable cells to incorporate and bind the supra-vital dye neutral red in the lysosomes. This weakly cationic dye penetrates cell membranes by non-ionic passive diffusion and concentrates in the lysosomes, where it binds by electrostatic hydrophobic bonds to anionic and phosphate groups of the lysosomal matrix. The dye is then extracted from the viable cells using an acidified ethanol solution, and the absorbance of the solubilized dye is read. When the cell dies or the pH gradient is reduced, the dye is not retained and consequently, the amount of retained dye is proportional to the number of viable cells. Most primary cells and cell lines can be used for this method. The HepG2 and Huh7, two human hepatoma cell lines, were used for this study. The cells were seeded in 96-well tissue culture plates and treated for 48 hours with the compounds. The plates were then incubated for 2 hours with a medium containing neutral red. The cells were subsequently washed, the dye was extracted in each well, and the absorbance was read using a spectrophotometer (FIG. 3 and Table 11).

Huh7 or HepG2 cell line = assay: MTT assay (cytotoxicity); type: cell-based, human; conditions: 24 hours and 48 hours
Method: The MTT assay is a colorimetric assay that measures the reduction of yellow 3-(4,5-dimethylhiazol-2-yl)-2,5-diphenyl tetrazolium bromide (MTT) by mitochondrial succinate dehydrogenase. The MTT enters the cells and passes into the mitochondria where it is reduced to an insoluble, dark purple, formazan product. The cells are then solubilized with an organic solvent (e.g., isopropanol) and the released, solubilized formazan reagent is measured spectrophotometrically. Since reduction of MTT can only occur in metabolically active cells, the level of activity is a measure of the viability of the cells.
Cells of the Huh7 or HepG2 cell line were seeded in a 96 well plate. The plate was incubated overnight at 37° C. in a humidified incubator, 5% CO2. The test compounds were added to the plate. Different concentrations of drug were tested in triplicate along with a negative control. The final volume was adjusted to 100 μl per well. The plate was incubated overnight at 37° C. in a humidified incubator, 5% CO2. After 24 hours and 48 hours, MTT reagent (5 mg/ml, 10 μl/100 μl per well of the 96 well plate) was added and incubated at 37° C. for 3 hours. After 3 hours, 100 μl of the DMSO solution was added to each well and the plate was rocked at room temperature for 1 hour. The plate was then read on a plate reader at […].

[2] = Saccharomyces cerevisiae (YPH501)

SMILES: O=c1c2ccccc2sn1Cc1nnc(Cc2ccccc2)o1 [Compound I-4]
- Activity (fungicidal/fungistatic) (Candida albicans (CAF-2)): fungicidal (An MFC/MIC ratio of less than four indicates that the compound is fungicidal)
- MFC (Candida albicans (CAF-2)): 6.4 µg/mL
- Ratio MFC/MIC (Candida albicans (CAF-2)): 1
- MIC (Candida albicans (CAF-2); read-out: MIC-50): 6.4 µg/mL
- Activity (fungicidal/fungistatic) (Candida apicola; Candida apicola): fungicidal (An MFC/MIC ratio of less than four indicates that the compound is fungicidal)
- MIC-50 (Candida apicola; Candida apicola): 12.5 µg/mL
- Ratio MFC/MIC (Candida apicola; Candida apicola): 1
- MFC (Candida apicola; Starmerella apicola): 12.5 µg/mL
- Activity (fungicidal/fungistatic) (Candida glabrata; Candida glabrata): fungicidal (An MFC/MIC ratio of less than four indicates that the compound is fungicidal)
- Ratio MFC/MIC (Candida glabrata; Candida glabrata): 1
- MFC (Candida glabrata; Nakaseomyces glabratus): 12.5 µg/mL
- MIC (Candida glabrata; Nakaseomyces glabratus, read-out: MIC-50): 12.5 µg/mL
- Activity (fungicidal/fungistatic) (Candida lusitaniae; Candida lusitaniae): fungicidal (An MFC/MIC ratio of less than four indicates that the compound is fungicidal)
- Ratio MFC/MIC (Candida lusitaniae; Candida lusitaniae): 1
- MFC (Candida lusitaniae; Clavispora lusitaniae): 12.5 µg/mL
- MIC (Candida lusitaniae; Clavispora lusitaniae, read-out: MIC-50): 12.5 µg/mL
- Activity (fungicidal/fungistatic) (Candida tropicalis): fungicidal (An MFC/MIC ratio of less than four indicates that the compound is fungicidal)
- MFC (Candida tropicalis): 12.5 µg/mL
- Ratio MFC/MIC (Candida tropicalis): 1
- MIC (Candida tropicalis; read-out: MIC-50): 12.5 µg/mL
- MFC (Candidia parapsilosis): 12.5 µg/mL
- Activity (fungicidal/fungistatic) (Candidia parapsilosis; Candidia parapsilosis): fungicidal (An MFC/MIC ratio of less than four indicates that the compound is fungicidal)
- Ratio MFC/MIC (Candidia parapsilosis; Candidia parapsilosis): 1
- MIC (Candidia parapsilosis; read-out: MIC-50): 12.5 µg/mL
- MFC ([1]; Saccharomyces cerevisiae): 6 µg/mL (≈ 18.6 µM)
- Activity (fungicidal/fungistatic) [1, 2]: fungicidal (An MFC/MIC ratio of less than four indicates that the compound is fungicidal)
- Ratio MFC/MIC [1, 2]: 1
- MIC ([1]; Saccharomyces cerevisiae, read-out: MIC-50): 6 µg/mL (≈ 18.6 µM)
- Percentage Viability (Huh7 cells; 3.3 μg/mL (approx 1X MIC)): >100%
- Percentage Viability (Huh7 cells; 10 μg/mL (approx 3X MIC)): >100%
- Percentage Viability (Huh7 cells; 33 μg/mL (approx 10X MIC)): >100%
- Percentage Viability (Huh7 cells; 100 μg/mL (approx 30X MIC)): 75%
- Toxicity to mammalian cell lines (MTT assay) (Huh7 or HepG2 cell line): minimally toxic
